Measured values taken from patent publication US20060223792A1, “Phenyl and pyridyl LTA4H modulators” (priority 2005, published 2006).

Target: T1, recombinant human LTA4 hydrolase (rhLTA4H) (Homo sapiens, UniProt P09960)
T1 construct: made in house; host or cells: Spodoptera frugiperda (Sf-9) cells, baculovirus (pFastBac1)
T1 sequence (P09960 1-611): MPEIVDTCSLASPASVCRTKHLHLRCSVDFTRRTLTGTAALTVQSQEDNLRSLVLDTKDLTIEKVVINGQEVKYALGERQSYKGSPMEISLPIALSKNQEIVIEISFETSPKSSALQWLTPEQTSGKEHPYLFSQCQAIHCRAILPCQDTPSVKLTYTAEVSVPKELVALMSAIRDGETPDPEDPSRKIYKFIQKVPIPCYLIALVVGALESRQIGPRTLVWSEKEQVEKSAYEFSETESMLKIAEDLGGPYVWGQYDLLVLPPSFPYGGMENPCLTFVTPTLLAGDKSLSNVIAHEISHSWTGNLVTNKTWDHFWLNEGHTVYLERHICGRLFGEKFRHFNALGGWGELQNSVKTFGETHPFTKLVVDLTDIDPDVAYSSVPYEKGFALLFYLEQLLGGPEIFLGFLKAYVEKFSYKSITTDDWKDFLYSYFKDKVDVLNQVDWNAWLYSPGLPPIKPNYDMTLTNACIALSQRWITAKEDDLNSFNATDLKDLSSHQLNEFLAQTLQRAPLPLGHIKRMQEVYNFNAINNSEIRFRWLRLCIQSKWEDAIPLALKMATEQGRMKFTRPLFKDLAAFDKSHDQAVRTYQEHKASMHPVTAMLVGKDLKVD
Experiment: Recombinant human LTA4 hydrolase assay for LTA4 hydrolase inhibitor activity
Type: biochemical
Details: recombinant human LTA4H, LTB4 quantified by enzyme-linked immunoassay; average of one to three determinations; read-out: IC50
Protocol: Recombinant Human LTA4 Hydrolase Assay for LTA4 Hydrolase Inhibitor Activity
Compounds of the present invention were tested for LTA4 hydrolase inhibitor activity against recombinant human LTA4 hydrolase (rhLTA4H). Vectors were prepared and used to express rhLTA4H essentially as follows: LTA4 hydrolase encoding DNA was amplified by polymerase chain reaction (PCR) using a human placental cDNA library as a template. Oligonucleotide primers for the PCR reaction were based on the 5′-end, and the complement of the 3′-end, of the published nucleotide sequence for the coding region of the human LTA4 hydrolase gene (C. D. Funk et al., Proc. Natl. Acad. Sci. USA 1987, 84:6677-6681). The amplified […] DNA fragment encoding LTA4 hydrolase was isolated and cloned into the pFastBac1 vector (Invitrogen). Recombinant baculovirus was generated as described by the manufacturer, and used to infect Spodoptera frugiperda (Sf-9) cells. Recombinant LTA4 hydrolase enzyme was purified from the infected Sf-9 cells essentially as described by J. K. Gierse et al. (Protein Expr. Purif. 1993, 4(5):358-366). The purified enzyme solution was adjusted to contain 0.29 mg/mL LTA4 hydrolase, 50 mM Tris (pH 8.0),150 mM NaCl, 5 mM dithiothreitol, 50% glycerol, and EDTA-free Complete protease inhibitor cocktail (Roche). The specific activity of the enzyme was about 3.8 μmol/min/mg.
LTA4 substrate was prepared from the methyl ester of LTA4 (Cayman Chemical) by treatment with 67 equiv. of NaOH under nitrogen at rt for 40 min. The LTA4 substrate in its free acid form was kept frozen at −80° C. until needed. Each compound was diluted to different concentrations in assay buffer (0.1 M potassium phosphate (pH 7.4), 5 mg/mL fatty acid free BSA) containing 10% DMSO. A 25-μL aliquot of each compound dilution was incubated for 10 min at rt with an equal volume of assay buffer containing 36 ng of recombinant human LTA4H. The solution was then adjusted to 200 μL with assay buffer. LTA4 (free acid) was thawed and diluted in assay buffer to a concentration of 357 ng/mL, and 25 μL (9 ng) of LTA4 substrate was added to the reaction mixture (total volume=225 μL) at time zero. Each reaction was carried out at rt for 10 min. The reaction was stopped by diluting 10 μL of the reaction mixture with 200 μL of assay buffer. LTB4 was quantifiedin the diluted sample by a commercially available enzyme-linked immunoassay (Cayman Chemical Co.), as recommended by the manufacturer. Positive controls, under essentially identical conditions but without addition of an inhibitor compound, and negative controls, containing all assay components except enzyme, were routinely run in each experiment. IC50 values were determined by fitting the activity data at different compound concentrations to a 4-parameter equation using the Grafit program (Erithacus software).
The IC50 values presented in the table below should be expected to fall within the typical three-fold variability of assays of this type. The values presented here are, in general, an average of one to three determinations.

IC50	Compound
21 nM	CCOC(=O)CCN(CCc1ccc(OCCc2ccccc2)cc1)C1CCN(C(C)=O)CC1 [Example 90, 3-{(1-Acetyl-piperidin-4-yl)-[2-(4-phenethyloxy-phenyl)-ethyl]-amino}-propionic acid ethyl ester]
28 nM	NC(=O)C1CCN(Cc2ccc(OCCc3ccccc3)cc2)CC1 [Example 101, 1-(4-Phenethyloxy-benzyl)-piperidine-4-carboxylic acid amide]
21 nM	CC(C(=O)Oc1ccc(OCCN2CCCCC2)cc1)c1ccccc1 (stereo not shown) [Example 22, 2-Phenyl-propionic acid 4-(2-piperidin-1-yl-ethoxy)-phenyl ester]
43 nM	CCOC(=O)CCN(C)CCc1ccc(OCCc2ccccc2)cc1 [Example 85, 3-{Methyl-[2-(4-phenethyloxy-phenyl)-ethyl]-amino}-propionic acid ethyl ester]
0.7 nM	CC(=O)N1CCC(N(CCC(=O)O)CCc2ccc(OCCc3ccccc3)cc2)CC1 [Example 91, 3-{(1-Acetyl-piperidin-4-yl)-[2-(4-phenethyloxy-phenyl)-ethyl]-amino}-propionic acid]
95 nM	NC(=O)C1CCCN(Cc2ccc(OCCCc3ccccc3)cc2)C1 (stereo not shown) [Example 111, 1-[4-(3-Phenyl-propoxy)-benzyl]-piperidine-3-carboxylic acid amide]
22 nM	Oc1cccc(CCOc2ccc(OCCN3CCCCC3)cc2)c1 [Example 28, 3-{2-[4-(2-Piperidin-1-yl-ethoxy)-phenoxy]-ethyl}-phenol]
55 nM	N#CC1CCN(CCc2ccc(OCCc3ccccc3)cc2)CC1 [Example 29, 1-[2-(4-Phenethyloxy-phenyl)-ethyl]-piperidine-4-carbonitrile]
31 nM	c1ccc(CCCOc2ccc(CN3CCCCC3)cc2)cc1 [Example 97, 1-[4-(3-Phenyl-propoxy)-benzyl]-piperidine]
900 nM	Fc1cccc(CCOc2ccc(OCCN3CCCCC3)cc2)c1 [Example 165, 1-(2-{4-[2-(3-Fluoro-phenyl)-ethoxy]-phenoxy}-ethyl)-piperidine]
16 nM	OC1CCN(Cc2ccc(OCCCc3ccccc3)cc2)CC1 [Example 108, 1-[4-(3-Phenyl-propoxy)-benzyl]-piperidin-4-ol]
4 nM	CN(CCC(=O)O)CCc1ccc(OCCc2ccccc2)cc1 [Example 88, 3-{Methyl-[2-(4-phenethyloxy-phenyl)-ethyl]-amino}-propionic acid]
35 nM	NC(=O)NC1CCN(Cc2ccc(OCCCc3ccccc3)cc2)CC1 [Example 122, {1-[4-(3-Phenyl-propoxy)-benzyl]-piperidin-4-yl}-urea]
70 nM	OC1CCN(Cc2ccc(OCCc3ccccc3)cc2)CC1 [Example 103, 1-(4-Phenethyloxy-benzyl)-piperidin-4-ol]
40 nM	NC1CCN(Cc2ccc(OCCCc3ccccc3)cc2)CC1 [Example 118, 1-[4-(3-Phenyl-propoxy)-benzyl]-piperidin-4-ylamine]
223 nM	O=C(O)C1CCCN(C2CCN(CCc3ccc(OCCc4ccccc4)cc3)CC2)C1 (stereo not shown) [Example 19, 1′-[2-(4-Phenethyloxy-phenyl)-ethyl]-[1,4′]bipiperidinyl-3-carboxylic acid]
5 nM	CCOC(=O)CCN(CCc1ccc(OCCc2ccccc2)cc1)C1CCCCC1 [Example 87, 3-{Cyclohexyl-[2-(4-phenethyloxy-phenyl)-ethyl]-amino}-propionic acid ethyl ester]
88 nM	CCOC(=O)C1CCCCN1C1CCN(CCc2ccc(OCCc3ccccc3)cc2)CC1 (stereo not shown) [Example 66, 1′-[2-(4-Phenethyloxy-phenyl)-ethyl]-[1,4′]bipiperidinyl-2-carboxylic acid ethyl ester]
49 nM	N#CCCCN(CCc1ccc(OCCc2ccccc2)cc1)C1CC1 [Example 33, 4-{Cyclopropyl-[2-(4-phenethyloxy-phenyl)-ethyl]-amino}-butyronitrile]
64 nM	O=C1c2ccccc2CC1Oc1ccc(OCCN2CCCCC2)cc1 (stereo not shown) [Example 126, 2-[4-(2-Piperidin-1-yl-ethoxy)-phenoxy]-indan-1-one]
150 nM	O=C(Oc1ccc(OCCN2CCCCC2)cc1)C(Cl)c1ccccc1 (stereo not shown) [Example 123, Chloro-phenyl-acetic acid 4-(2-piperidin-1-yl-ethoxy)-phenyl ester]
42 nM	COC(=O)C1CCN(CCc2ccc(OCC(=O)c3ccccc3)cc2)CC1 [Example 75, 1-{2-[4-(2-Oxo-2-phenyl-ethoxy)-phenyl]-ethyl}-piperidine-4-carboxylic acid methyl ester]
8 nM	COC(=O)NC1CCN(Cc2ccc(OCCCc3ccccc3)cc2)CC1 [Example 121, {1-[4-(3-Phenyl-propoxy)-benzyl]-piperidin-4-yl}-carbamic acid methyl ester]
195 nM	CCOC(=O)C1CCN(CCOc2ccc(OCCCc3ccccc3)cc2)CC1 [Example 116, 1-{2-[4-(3-Phenyl-propoxy)-phenoxy]-ethyl}-piperidine-4-carboxylic acid ethyl ester]
75 nM	O=C(Oc1ccc(OCCN2CCCCC2)cc1)c1cc2ccccc2[nH]1 [Example 23, 1H-Indole-2-carboxylic acid 4-(2-piperidin-1-yl-ethoxy)-phenyl ester]
6 nM	COC(=O)C1CCN(CCc2ccc(OCCc3ccccc3)cc2)CC1 [Example 77, 1-[2-(4-Phenethyloxy-phenyl)-ethyl]-piperidine-4-carboxylic acid methyl ester]

Compound	IC50
O=C(Nc1ccccc1F)Oc1ccc(OCCN2CCCCC2)cc1 [Example 43, (2-Fluoro-phenyl)-carbamic acid 4-(2-piperidin-1-yl-ethoxy)-phenyl ester]	7 nM
c1ccc(CCOc2ccc(CCNC3CC3)cc2)cc1 [Example 32, Cyclopropyl-[2-(4-phenethyloxy-phenyl)-ethyl]-amine]	177 nM
O=C(Nc1ccccc1)Oc1ccc(CCCN2CCC(O)(c3ccccc3)CC2)cc1 [Example 36, Phenyl-carbamic acid 4-[3-(4-hydroxy-4-phenyl-piperidin-1-yl)-propyl]-phenyl ester]	5 nM
CCN(CCc1ccc(OCC(O)c2ccccc2)cc1)C1CCCCC1 (stereo not shown) [Example 73, 2-{4-[2-(Cyclohexyl-ethyl-amino)-ethyl]-phenoxy}-1-phenyl-ethanol]	10 nM
CCN(CCc1ccc(OC(=O)Nc2ccccc2)cc1)C1CCCCC1 [Example 59, Phenyl-carbamic acid 4-[2-(cyclohexyl-ethyl-amino)-ethyl]-phenyl ester]	0.6 nM
CCCCN(CCCC)CCc1ccc(OC(=O)Nc2ccccc2)cc1 [Example 63, Phenyl-carbamic acid 4-(2-dibutylamino-ethyl)-phenyl ester]	0.6 nM
O=C(Nc1ccccc1)Oc1ccc(OCCN2CCC(O)(c3ccc(Br)cc3)CC2)cc1 [Example 56, Phenyl-carbamic acid 4-{2-[4-(4-bromo-phenyl)-4-hydroxy-piperidin-1-yl]-ethoxy}-phenyl ester]	3 nM
O=C(Nc1ccccc1)Oc1ccc(CCN2CCC(O)CC2)cc1 [Example 58, Phenyl-carbamic acid 4-[2-(4-hydroxy-piperidin-1-yl)-ethyl]-phenyl ester]	2 nM
